Reference: patent publication US8148516B2, “Flowcell systems for single molecule detection” (Pacific Biosciences of California, Inc., priority 2000, dated 2012)

Experiment: Capillary electrophoresis of dTTP and dTDP: effect of Mg++ on electrophoretic mobility
Type: physicochemical
Settings: 50 mM Tris-acetate pH 8.0, 60 mM KCl; for effect of Mg++ on electrophoretic mobility: MgCl2 3-40 mM
Procedure: The effect of Mg^++ on the electrophoretic mobility of dTTP and dTDP was determined by capillary electrophoresis. Electrophoresis buffer contained 50 mM Tris-acetate pH 8.0, 60 mM KCl, and various concentrations of MgCl2 (3, 4, 6, 10, 15, 25 and 40 mM). The sample contained 0.5 mM nucleotide (dTTP or dTDP; Sigma) and 0.8 mM mesityl oxide (electroneutral marker; Sigma). The samples were analyzed by capillary electrophoresis (Hewlett Packard) using an uncoated fused silica capillary (40 cm from injection end to detection zone). Voltage was 8.5 kV and peaks were monitored by optical absorbance at 260 nm. Electrokinetic velocity of each sample peak was calculated by dividing distance (40 cm) by elution time. Electroosmotic flow (EOF) of the bulk buffer is taken as the velocity of the mesityl oxide marker. Nucleotide electrophoretic velocity is the nucleotide electrokinetic velocity minus EOF. Nucleotide electrophoretic velocities are plotted as a function of Mg^++ concentration (FIG. 11A).

effect of Mg++ on electrophoretic mobility	SMILES	electrophoretic mobility compared with dTDP (3-40 mM MgCl2, 8.5 kV)
from more negative to less negative	Cc1cn([C@H]2C[C@H](O)[C@@H](COP(=O)(O)OP(=O)(O)O)O2)c(=O)[nH]c1=O [dTDP]	
from more negative to less negative	Cc1cn([C@H]2C[C@H](O)[C@@H](COP(=O)(O)OP(=O)(O)OP(=O)(O)O)O2)c(=O)[nH]c1=O [dTTP]	more negative electrophoretic mobility than the dTDP
